Reference: US20040121028A1, “Plant based agents as bioavailability / bioefficacy enhancers for drugs and nutraceuticals” (COUNCIL OF SCIENTIFIC AND INDUSTRIAL RESEARCH, priority 2002, published 2004)

Assay: Enhancement in bioavailability of drugs by the Cuminum cyminum active molecule / fraction
[1] = drug given with Active molecule (3′,5-dihydroxy flavone-7-O-β-D-galacturonide-4′-O-β-D-glucopyranoside)
[2] = drug given with Fraction from Cuminum cyminum

For `CC1(C)S[C@@H]2[C@H](NC(=O)[C@H](N)c3ccc(O)cc3)C(=O)N2[C@H]1C(=O)O` [Amoxycillin], the “% Enhancement in bioavailability” value [1] was 68% and the “% Enhancement in bioavailability” value [2] was 105%.
In the case of `CC(C)(C)NCC(O)c1ccc(O)c(CO)c1` (stereo not drawn) [Salbutamol], the “% Enhancement in bioavailability” value [1] is reported as 98% and the “% Enhancement in bioavailability” value [2] is reported as 75%.
For `CC[C@H]1OC(=O)[C@H](C)[C@@H](O[C@H]2C[C@@](C)(OC)[C@@H](O)[C@H](C)O2)[C@H](C)[C@@H](O[C@@H]2O[C@H](C)C[C@H](N(C)C)[C@H]2O)[C@](C)(O)C[C@@H](C)C(=O)[C@H](C)[C@@H](O)[C@]1(C)O` [Erythromycin], the “% Enhancement in bioavailability” value [1] was 70% and the “% Enhancement in bioavailability” value [2] was 80%.
In the case of `Cc1nnc2n1-c1ccc(Cl)cc1C(c1ccccc1)=NC2` [Alprazolam], the “% Enhancement in bioavailability” value [1] is reported as 70% and the “% Enhancement in bioavailability” value [2] is reported as 75%.
For `CN1C(C(=O)Nc2ccccn2)=C(O)c2ccccc2S1(=O)=O` [Piroxicam], the “% Enhancement in bioavailability” value [1] was 76% and the “% Enhancement in bioavailability” value [2] was 100%.
In the case of `Cn1c(=O)c2[nH]cnc2n(C)c1=O` [Theophylline], the “% Enhancement in bioavailability” value [1] is reported as 75% and the “% Enhancement in bioavailability” value [2] is reported as 95%.
With `CC[C@H]1OC(=O)[C@H](C)[C@@H](O[C@H]2C[C@@](C)(OC)[C@@H](O)[C@H](C)O2)[C@H](C)[C@@H](O[C@@H]2O[C@H](C)C[C@H](N(C)C)[C@H]2O)[C@](C)(O)C[C@@H](C)CN(C)[C@H](C)[C@@H](O)[C@]1(C)O` [Azithromycin] the “% Enhancement in bioavailability” value [1] was 82% and the “% Enhancement in bioavailability” value [2] was 115%.
In the case of `C[C@@H]1[C@H](O)[C@@H](C)/C=C/C=C/C=C/C=C/C=C/C=C/C=C/[C@H](O[C@@H]2O[C@H](C)[C@@H](O)[C@H](N)[C@@H]2O)C[C@@H]2O[C@](O)(C[C@@H](O)C[C@@H](O)[C@H](O)CC[C@@H](O)C[C@@H](O)CC(=O)O[C@H]1C)C[C@H](O)[C@H]2C(=O)O` [Amphotericin B], the “% Enhancement in bioavailability” value [1] is reported as 95% and the “% Enhancement in bioavailability” value [2] is reported as 90%.
For `Nc1ccc(S(=O)(=O)c2ccc(N)cc2)cc1` [Dapsone], the “% Enhancement in bioavailability” value [1] was 67% and the “% Enhancement in bioavailability” value [2] was 93%.
In the case of `O=C(O)Cc1ccccc1Nc1c(Cl)cccc1Cl` [Diclofenac], the “% Enhancement in bioavailability” value [1] is reported as 105% and the “% Enhancement in bioavailability” value [2] is reported as 125%.
In the case of `CCn1cc(C(=O)O)c(=O)c2cc(F)c(N3CCNCC3)cc21` [Norfloxacin], the “% Enhancement in bioavailability” value [1] is reported as 45% and the “% Enhancement in bioavailability” value [2] is reported as 55%.
For `CN/C(=N/CCSCc1nc[nH]c1C)NC#N` [Cimetidine], the “% Enhancement in bioavailability” value [1] was 76% and the “% Enhancement in bioavailability” value [2] was 70%.
With `COc1ccc2[nH]c([S+]([O-])Cc3ncc(C)c(OC)c3C)nc2c1` (stereo not drawn) [Omeprazole] the “% Enhancement in bioavailability” value [1] was 72% and the “% Enhancement in bioavailability” value [2] was 87%.
In the case of `CC1=C(C(=O)O)N2C(=O)[C@@H](NC(=O)[C@H](N)c3ccc(O)cc3)[C@H]2SC1` [Cefadroxil], the “% Enhancement in bioavailability” value [1] is reported as 85% and the “% Enhancement in bioavailability” value [2] is reported as 120%.
For `CN(Cc1cc(Br)cc(Br)c1N)C1CCCCC1` [Bromhexine], the “% Enhancement in bioavailability” value [2] was 35%.
With `O=C(CCCN1CCC(O)(c2ccc(Cl)cc2)CC1)c1ccc(F)cc1` [Haloperidol] the “% Enhancement in bioavailability” value [1] was 72% and the “% Enhancement in bioavailability” value [2] was 60%.
For `Nc1nc2c(ncn2COCCO)c(=O)[nH]1` [Acyclovir], the “% Enhancement in bioavailability” value [1] was 89% and the “% Enhancement in bioavailability” value [2] was 110%.
With `C=CC[C@@H]1/C=C(\C)C[C@H](C)C[C@H](OC)[C@H]2O[C@@](O)(C(=O)C(=O)N3CCCC[C@H]3C(=O)O[C@H](/C(C)=C/[C@@H]3CC[C@@H](O)[C@H](OC)C3)[C@H](C)[C@@H](O)CC1=O)[C@H](C)C[C@@H]2OC` [Tacrolimus] the “% Enhancement in bioavailability” value [1] was 90% and the “% Enhancement in bioavailability” value [2] was 110%.
With `O=c1[nH]cc(F)c(=O)[nH]1` [5-Fluorouracil] the “% Enhancement in bioavailability” value [1] was 110% and the “% Enhancement in bioavailability” value [2] was 240%.
With `NCC[C@H](O)C(=O)N[C@@H]1C[C@H](N)[C@@H](O[C@H]2O[C@H](CN)[C@@H](O)[C@H](O)[C@H]2O)[C@H](O)[C@H]1O[C@H]1O[C@H](CO)[C@@H](O)[C@H](N)[C@H]1O` [Amikacin] the “% Enhancement in bioavailability” value [1] was 76% and the “% Enhancement in bioavailability” value [2] was 87%.
With `CNC(=C[N+](=O)[O-])NCCSCc1ccc(CN(C)C)o1` [Ranitidine] the “% Enhancement in bioavailability” value [1] was 95% and the “% Enhancement in bioavailability” value [2] was 95%.
In the case of `CC(=O)N1CCN(c2ccc(OCC3COC(Cn4ccnc4)(c4ccc(Cl)cc4Cl)O3)cc2)CC1` (stereo not drawn) [Ketoconazole], the “% Enhancement in bioavailability” value [1] is reported as 77% and the “% Enhancement in bioavailability” value [2] is reported as 85%.
For `N[C@@H]1CON=C1O` [Cycloserine], the “% Enhancement in bioavailability” value [1] was 85% and the “% Enhancement in bioavailability” value [2] was 110%.
For `CS(=O)(=O)Nc1ccc([N+](=O)[O-])cc1Oc1ccccc1` [Nimesulide], the “% Enhancement in bioavailability” value [1] was 90% and the “% Enhancement in bioavailability” value [2] was 115%.
For `CCc1cc(C(N)=S)ccn1` [Ethionamide], the “% Enhancement in bioavailability” value [1] was 120% and the “% Enhancement in bioavailability” value [2] was 110%.
With `CCOC(=O)C1=C(COCCN)NC(C)=C(C(=O)OC)C1c1ccccc1Cl` (stereo not drawn) [Amlodipine] the “% Enhancement in bioavailability” value [1] was 80% and the “% Enhancement in bioavailability” value [2] was 130%.
With `NNC(=O)c1ccncc1` [Isoniazid] the “% Enhancement in bioavailability” value [2] was 30%.
With `COc1cccc2c1C(=O)c1c(O)c3c(c(O)c1C2=O)C[C@@](O)(C(=O)CO)C[C@@H]3O[C@H]1C[C@H](N)[C@H](O)[C@H](C)O1` [Doxorubicin] the “% Enhancement in bioavailability” value [1] was 78% and the “% Enhancement in bioavailability” value [2] was 90%.
With `CO[C@H]1/C=C/O[C@@]2(C)Oc3c(C)c(O)c4c(O)c(c(/C=N/N5CCN(C)CC5)c(O)c4c3C2=O)NC(=O)/C(C)=C\C=C\[C@H](C)[C@H](O)[C@@H](C)[C@@H](O)[C@@H](C)[C@H](OC(C)=O)[C@@H]1C` [Rifampicin] the “% Enhancement in bioavailability” value [1] was 90% and the “% Enhancement in bioavailability” value [2] was 170%.
With `CN(Cc1cnc2nc(N)nc(N)c2n1)c1ccc(C(=O)N[C@@H](CCC(=O)O)C(=O)O)cc1` [Methotrexate] the “% Enhancement in bioavailability” value [1] was 95% and the “% Enhancement in bioavailability” value [2] was 140%.
With `CC(C)NCC(O)COc1cccc2ccccc12` (stereo not drawn) [Propranolol] the “% Enhancement in bioavailability” value [1] was 85% and the “% Enhancement in bioavailability” value [2] was 140%.
For `CO/N=C(\C(=O)N[C@@H]1C(=O)N2C(C(=O)O)=C(CSc3nc(=O)c(O)nn3C)CS[C@H]12)c1csc(N)n1` [Cefatrioxone], the “% Enhancement in bioavailability” value [1] was 75% and the “% Enhancement in bioavailability” value [2] was 100%.
In the case of `Cc1cn([C@H]2C[C@H](N=[N+]=[N-])[C@@H](CO)O2)c(=O)[nH]c1=O` [Zidovudine], the “% Enhancement in bioavailability” value [1] is reported as 120% and the “% Enhancement in bioavailability” value [2] is reported as 135%.
In the case of `CS(=O)(=O)c1ccc(C2=C(c3ccccc3)C(=O)OC2)cc1` [Rofecoxib], the “% Enhancement in bioavailability” value [1] is reported as 43% and the “% Enhancement in bioavailability” value [2] is reported as 70%.
